Laboratory results taken from patent US8466311B2, “Neuroprotective compositions and methods” (Sanford-Burnham Medical Research Institute, priority 2006, dated 2013).

Key:
ARE = ARE luciferase reporter in cortical cultures; format: cell-based, rat
Experimental: Cortical cultures (E17, DIV21) were transfected with ARE-luciferase reporter gene DNA (1 μg/well) and co-transfected with pEF6 or pEFNrf2DN. CA (3 μM) or vehicle was then added to the cultures. After a 24-h incubation, cell lysates were used for luciferase reporter gene assays. Values are mean±SEM; *p<0.01 by ANOVA.
Next, transcriptional activation of the HO-1 promoter by NEPP was examined by reporter gene assays in primary neurons. Cortical cultures were transfected with reporter cDNAs (1 μg per well), and 0.7 μM NEPP11 was added to the cultures. After a 24 h incubation, cell lysates were subjected to luciferase reporter assays. […] If the Keap1/Nrf2 pathway, indeed, mediates activation of the HO-1 promoter by NEPP11, mutant Nrf2 protein should inhibit this activation. […] Moreover, the selective activation in neurons may explain the relatively small amplitude of total HO-1 activation seen in the mixed neuronal/glial culture system in which glia predominate.
Transient transfection and measurement of luciferase activity. PC12h cells or cerebrocortical cultures (E17, DIV21) were incubated for 5 h in EBSS containing 1 μg of a plasmid DNA plus Lipofectamine 2000 (Invitrogen, Carlsbad, Calif.). Transfection efficiency was normalized to β-galactosidase activity expressed by co-transfection with pSV-β-gal (Promega). For reporter gene assays, cells were transfected with 1 μg of the reporter construct [ARE(GSTYa)-luciferase] and 0.2 μg pSV-β-gal for 1 hour. The cells were then washed in PBS alone and incubated in the culture medium for another 24 h with or without CA. Firefly luciferase activity and β-galactosidase activity in cell lysates were measured using a Luciferase System and β-Galactosidase Enzyme Assay System, respectively (Promega, Madison, Wis.).
To confirm that CA activated the ARE in these cortical cultures, we performed luciferase reporter gene assays. […] CA accumulates both in neurons and in non-neuronal cells (FIG. 5).

MCAO/reperfusion injury = assay: Focal cerebral ischemia: MCAO/reperfusion in mice; format: in vivo, mouse
Experimental: Focal cerebral ischemia and reperfusion. The filament model of middle cerebral artery occlusion (MCAO)/reperfusion was used as described (Gu et al., Science 297:1186-1190, 2002; see Supporting Methods in Supporting Text).
NEPP11 or vehicle was injected intraperitoneally (i.p.) 1 h before and 4 h after MCAO. The area of brain infarction (corrected for possible edema) was assessed on coronal sections from vehicle- and NEPP11-treated mice stained with 2.5% 2,3,5-triphenyltetrazolium chloride 24 h after the onset of reperfusion.
Focal Cerebral Ischemia and Reperfusion. NEPP11 was injected at 100 mg/ml in a 7.5% solution of DMSO in PBS; controls received the diluent alone. The investigator was blinded as to the treatment group. The injected volume was 10 ml/g of body weight, corresponding to 1 mg/kg. […] Other physiological parameters were monitored, including systemic blood pressure, glucose, and arterial blood gasses and pH. […] Occlusion and reperfusion of blood flow were monitored by laser Doppler flowmetry. […]
After the reperfusion period, the animals were killed. […] Areas of infarction occurred in the right middle cerebral artery territory of each brain slice and were quantified with a computerized image analysis system (NIH image 1.62) as described (Gu et al., Science 297:1186-1190, 2000). […]

PC12h cells = assay: Oxidative glutamate toxicity in PC12h cells (MTT assay); format: cell-based
Experimental: PC12h cells, PC12hW1B cells, and PC12hD5D cells (expressing Nrf2DN) were incubated with various concentrations of glutamate for 20 h. […] Various concentrations of CA were added to PC12, PC or PC12hD5D cells 1 h prior to exposure to 5 mM glutamate for 20 h.
PC12h and COST cell cultures.
Thus, we examined whether CA could protect PC12h cells from such insults. We prepared naïve PC12h cells, Nrf2WT-expressing PC12h cells (PC12hW1B), and Nrf2DN-expressing PC12h cells (PC12hD5D). In order to examine the effects of the Keap1/Nrf2 pathway on cell survival in the face of oxidative stress, we exposed the cells to a high concentration of glutamate. […] To visualize surviving and dead cells, we stained cultures with fluorescein diacetate (FDA) and propidium iodide (PI), respectively. Additionally, cell survival was quantified by the 3-(4,5-dimethylthiazol-2-yl)-2,5-diphenyl tetrazolium bromide (MTT) assay (FIG. 4A).
We next tested the hypothesis that CA-induced neuroprotection is mediated by the Keap1/NRf2 pathway.

cerebrocortical neurons = assay: NMDA-induced neuronal cell death (excitotoxicity) in cerebrocortical cultures
Experimental: We stained the cultures with both anti-MAP-2 and anti-NeuN monoclonal antibodies to label neuronal dendrites and nuclei, respectively. Vehicle or NEPP11 (0.7 μM) was added to cerebrocortical cultures (E17 and DIV14-21) 60 min before treatment with NMDA (50 μM) for 15 min. The cultures were then incubated for 20 h and subsequently stained with anti-MAP-2 and anti-NeuN and with Hoechst dye. Apoptotic nuclei were identified by morphological changes seen with Hoechst staining. […] We also added zinc protoporphyrin (ZnPP, 10 μM), a relatively specific HO-1 antagonist, simultaneously with NEPP11. The number of apoptotic neurons was assessed by determining the apoptotic index [(number of condensed nuclei in MAP-2 or NeuN-positive cells)/(number of total MAP-2 or NeuN-positive cells)×100%], as reported by Bonfoco et al. (Proc. Natl. Acad. Sci. USA 92:7162-7166, 1995).
Cerebrocortical cultures were prepared from embryonic day-17 Sprague-Dawley rats and used at day 14-21 in vitro (DIV14-21), as described (Bonfoco et al., Proc. Natl. Acad. Sci. USA 92:7162-7166, 1995). To induce predominantly neuronal apoptosis (rather than necrosis), we exposed cortical cultures to 50 mM NMDA plus 5 mM glycine/1.8 mM CaCl2 in nominally Mg^2+-free Earle's balanced salt solution for 15 min (Bonfoco et al., Proc. Natl. Acad. Sci. USA 92:7162-7166, 1995). After exposure to NMDA, the cultures were returned to normal medium containing vehicle or NEPP11 and incubated for 20 hr before analyzing cell survival. To assess the ability of NEPP compounds to block NMDA-induced neuronal apoptosis, we identified apoptotic neurons by double immunofluorescence with anti-NeuN and anti-MAP-2 to specifically label neurons and with Hoechst staining for nuclear morphology to detect apoptosis. The percentage of neurons and non-neuronal cells in our cultures was 33.6±4.9% and 66.4±4.4% (n=4), respectively.
In addition, we used mature cortical cultures (E17, DIV21) to assess excitotoxicity because functional NMDA receptors are expressed on these neurons.

[1] = test system: thioredoxin and glutaredoxin; assay: Expression of Trx and Grx genes in cortical cultures (RT-PCR); format: cell-based, rat; parameters: expression of the Trx and Grx genes: dose or concentration left out as unconfirmed
Experimental: One caveat to the mechanism of NEPP and other electrophilic compounds acting at the level of Keap1 to induce HO-1 transcription is that NEPP could potentially react indiscriminately with other thiol-containing compounds in cells. To approach this question, we assessed cellular glutathione (GSH) levels to determine whether NEPP11 would affect this abundant antioxidant thiol. Nepp11 or N-ethylmaleimide (NEM) was added at t=0 and levels of total GSH were measured at the indicated times. GSH content of control cortical cultures (set arbitrarily at 100%) was 46.8±4.5 nmol/mg protein. […] In fact, this scenario seems likely, because the Keap1/Nrf2 pathway regulates the expression of γ-GCL in addition to HO-1 (Itoh et al., Mol. Cell. Biol. 24:36-45, 2004). Besides GSH, cells have another major reduction pathway representing the thioredoxin-glutaredoxin system.
Lack of Effect of NEPP Compounds on Expression of Trx and Grx Genes. […]

Compound | ARE activation with Nrf2-DN (ARE; 3 μM CA) | ARE-mediated transcription increase (ARE; 3 μM CA, E17 DIV21, 24 h) [fold] | infarct volume, % of the ipsilateral hemisphere (MCAO/reperfusion injury; CA 1 mg/kg i.p. 1 h prior to MCAO, 2-h MCAO/24-h reperfusion, vehicle 51.2±2.4%) [%] | protective effects in PC12hD5D cells (Nrf2DN) (PC12h cells; CA) | concentrations protecting PC12h cells against oxidative glutamate toxicity (PC12h cells; dose-dependent, 5 mM glutamate 20 h, CA 1 h prior) [µM] | viability at 3 µM (cerebrocortical neurons; Rattus norvegicus, Cerebrocortical neuron, read-out: survival (viable cells) after NMDA) [%] | activity of the ARE core element (ARE; NEPP11 0.7 μM, 24 h) | expression of thioredoxin or glutaredoxin ([1]; NEPP11 1 μM) | expression of the Trx and Grx genes ([1]; NEPP11, 24 hr, RT-PCR) | infarct area in coronal sections (MCAO/reperfusion injury; NEPP11 1 mg/kg i.p. 1 h before and 4 h after MCAO, 2 hr MCAO, 24 hr reperfusion) | number of apoptotic neurons (cerebrocortical neurons; NEPP11 0.7 μM 60 min before NMDA 50 μM 15 min, 20 h)
CC(C)c1cc2c(c(O)c1O)[C@@]1(C(=O)O)CCCC(C)(C)[C@@H]1CC2 [CA, carnosic acid] | abrogated by Nrf2-DN | 2.3 | 34.5±3.6 | significantly suppressed | 0.1 to 1 | 36 ± 2.3 |  |  |  |  | 
COC(=O)CCCCC/C=C1/C(=O)C=C[C@H]1CCCCCCc1ccc(C)cc1 [NEPP11] |  |  |  |  |  |  | significantly increased | did not significantly affect | did not significantly affect | significantly reduced | significantly decreased
